pIC50, pKi: −log10 of the molar value.
Columns and labels:
[1] = molecular target: T1, Protein kinase C beta type (Homo sapiens, UniProt P05771); experiment: Inhibition of human Protein kinase C beta 1 using [gamma-33P]-ATP
[2] = Inhibition of Protein kinase C epsilon
[3] = molecular target: Mitogen-activated protein kinase 1 (Mus musculus, UniProt P63085); format: cell-based, P19
Description: Inhibition of Mitogen-activated protein kinase/extracellular signal-regulated kinase 2 in P19 cells

Casein kinase 2 = Casein kinase 2 (Mus musculus, UniProt Q60737+P67871+O54833+Q8CH19); experiment: Inhibition of Casein kinase 2 of P19 cells; format: cell-based
[4] = molecular target: T2, Protein kinase C zeta type (Homo sapiens, UniProt Q05513); experiment: Inhibition of Protein kinase C zeta
T2 sequence (Q05513 whole entry): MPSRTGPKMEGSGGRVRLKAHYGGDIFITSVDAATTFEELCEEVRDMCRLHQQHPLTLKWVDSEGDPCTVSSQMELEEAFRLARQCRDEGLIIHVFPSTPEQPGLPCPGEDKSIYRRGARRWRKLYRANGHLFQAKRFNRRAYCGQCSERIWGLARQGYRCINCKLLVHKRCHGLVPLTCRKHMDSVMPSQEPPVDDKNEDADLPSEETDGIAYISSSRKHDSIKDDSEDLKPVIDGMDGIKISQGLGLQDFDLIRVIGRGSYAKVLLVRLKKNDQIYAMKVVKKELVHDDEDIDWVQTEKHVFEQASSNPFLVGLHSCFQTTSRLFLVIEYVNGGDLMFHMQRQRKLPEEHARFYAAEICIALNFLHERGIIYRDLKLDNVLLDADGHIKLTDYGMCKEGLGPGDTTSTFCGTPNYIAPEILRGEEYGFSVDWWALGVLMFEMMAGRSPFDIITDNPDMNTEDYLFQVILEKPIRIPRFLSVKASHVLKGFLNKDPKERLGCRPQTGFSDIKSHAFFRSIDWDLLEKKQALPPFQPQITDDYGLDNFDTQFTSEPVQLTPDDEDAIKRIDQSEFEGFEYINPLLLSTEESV

[5] = molecular target: Protein kinase C delta type (Homo sapiens, UniProt Q05655); experiment: Inhibition of Protein kinase C delta
Insulin receptor = Insulin receptor (Mus musculus, UniProt P15208); experiment: Inhibition of Insulin receptor kinase in P19 cells; format: cell-based
[6] = Inhibition of Casein kinase 1 in P19 cells; format: cell-based, Mus musculus
[7] = molecular target: T1, Protein kinase C beta type; experiment: Inhibition of IL-8 release by HEK293 cells expressing PKC-beta2; format: functional, cell-based
[8] = molecular target: Epidermal growth factor receptor (Mus musculus, UniProt Q01279); experiment: Inhibition of Epidermal growth factor receptor in P19 cells; format: cell-based
[9] = molecular target: Platelet-derived growth factor receptor (Mus musculus, UniProt P05622+P26618); experiment: Inhibition of Platelet-derived growth factor receptor in P19 cells; format: cell-based
[10] = molecular target: Cyclin-dependent kinase 1 (Mus musculus, UniProt P11440); experiment: Inhibition of Cyclin-dependent kinase 1 in P19 cells; format: cell-based
[11] = Inhibition of Calcium/calmodulin-dependent protein kinase type II in P19 cells; format: cell-based, Mus musculus
[12] = molecular target: Protein kinase C gamma type (Homo sapiens, UniProt P05129); experiment: Inhibition of human Protein kinase C gamma using [gamma-33P]-ATP
[13] = Inhibition of Protein Kinase A in P19 cells; format: cell-based, Mus musculus
[14] = Inhibition of Vascular endothelial growth factor receptor in P19 cells; format: cell-based, Mus musculus
[15] = molecular target: T1, Protein kinase C beta type; experiment: Inhibition of human Protein kinase C beta 2 using [gamma-33P]-ATP
[16] = molecular target: Voltage-gated inwardly rectifying potassium channel KCNH2 (Homo sapiens, UniProt Q12809)
Description: Inhibition of [3H]astemizole binding to Potassium channel HERG

[17] = molecular target: Protein kinase C alpha type (Homo sapiens, UniProt P17252); experiment: Inhibition of human Protein kinase C alpha using [gamma-33P]-ATP
[18] = molecular target: T3, Protein kinase C zeta type (Homo sapiens) (UniProt Q05513); experiment: Inhibition of Protein kinase C zeta at 10 uM
T3 sequence (whole entry): T2 sequence (Q05513 whole entry)

T1 sequence (P05771 whole entry): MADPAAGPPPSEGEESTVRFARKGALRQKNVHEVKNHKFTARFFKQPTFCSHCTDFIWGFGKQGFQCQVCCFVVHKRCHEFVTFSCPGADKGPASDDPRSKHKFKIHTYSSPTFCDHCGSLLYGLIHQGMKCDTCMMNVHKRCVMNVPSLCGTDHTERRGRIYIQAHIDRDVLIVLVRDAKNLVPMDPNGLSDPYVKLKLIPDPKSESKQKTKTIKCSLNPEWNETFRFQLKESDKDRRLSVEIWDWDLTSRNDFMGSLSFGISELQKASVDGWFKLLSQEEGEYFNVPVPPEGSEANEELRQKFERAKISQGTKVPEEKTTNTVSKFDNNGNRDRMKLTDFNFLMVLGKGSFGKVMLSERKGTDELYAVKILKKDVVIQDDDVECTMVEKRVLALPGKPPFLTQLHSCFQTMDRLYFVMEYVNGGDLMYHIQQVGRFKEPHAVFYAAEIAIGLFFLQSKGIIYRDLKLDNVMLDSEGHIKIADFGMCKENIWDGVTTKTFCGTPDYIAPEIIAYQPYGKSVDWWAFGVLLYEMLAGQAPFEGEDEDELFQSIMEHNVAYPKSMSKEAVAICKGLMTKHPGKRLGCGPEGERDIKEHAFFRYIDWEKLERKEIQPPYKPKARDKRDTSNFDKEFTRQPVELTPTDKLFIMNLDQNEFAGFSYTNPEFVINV
Sequence of Cyclin-dependent kinase 1 (P11440 whole entry): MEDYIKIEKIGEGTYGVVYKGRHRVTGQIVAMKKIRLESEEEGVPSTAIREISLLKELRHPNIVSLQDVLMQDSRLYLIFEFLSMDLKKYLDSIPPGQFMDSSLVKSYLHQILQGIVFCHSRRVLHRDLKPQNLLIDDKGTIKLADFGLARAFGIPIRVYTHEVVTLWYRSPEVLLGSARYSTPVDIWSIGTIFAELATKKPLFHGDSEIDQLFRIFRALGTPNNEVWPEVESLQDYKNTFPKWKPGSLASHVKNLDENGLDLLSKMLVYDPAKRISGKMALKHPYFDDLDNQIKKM
Sequence of Protein kinase C delta type (Q05655 whole entry): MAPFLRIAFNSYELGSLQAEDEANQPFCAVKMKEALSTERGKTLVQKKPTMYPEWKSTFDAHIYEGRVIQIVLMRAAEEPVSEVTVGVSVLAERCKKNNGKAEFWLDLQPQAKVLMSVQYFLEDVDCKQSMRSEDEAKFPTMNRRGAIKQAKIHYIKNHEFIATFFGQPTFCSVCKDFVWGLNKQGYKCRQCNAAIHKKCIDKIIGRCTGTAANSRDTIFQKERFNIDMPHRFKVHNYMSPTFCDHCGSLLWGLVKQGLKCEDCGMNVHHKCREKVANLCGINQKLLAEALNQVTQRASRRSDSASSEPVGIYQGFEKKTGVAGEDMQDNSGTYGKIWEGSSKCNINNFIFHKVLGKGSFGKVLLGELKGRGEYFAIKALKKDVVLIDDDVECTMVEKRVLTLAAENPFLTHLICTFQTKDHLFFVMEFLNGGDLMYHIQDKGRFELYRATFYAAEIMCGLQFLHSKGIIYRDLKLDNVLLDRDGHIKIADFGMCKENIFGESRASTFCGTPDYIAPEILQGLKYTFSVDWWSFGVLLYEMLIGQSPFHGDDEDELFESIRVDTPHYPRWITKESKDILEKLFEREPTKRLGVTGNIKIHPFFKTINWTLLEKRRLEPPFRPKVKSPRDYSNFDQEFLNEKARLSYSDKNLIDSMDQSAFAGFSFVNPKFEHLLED
Sequence of Mitogen-activated protein kinase 1 (P63085 whole entry): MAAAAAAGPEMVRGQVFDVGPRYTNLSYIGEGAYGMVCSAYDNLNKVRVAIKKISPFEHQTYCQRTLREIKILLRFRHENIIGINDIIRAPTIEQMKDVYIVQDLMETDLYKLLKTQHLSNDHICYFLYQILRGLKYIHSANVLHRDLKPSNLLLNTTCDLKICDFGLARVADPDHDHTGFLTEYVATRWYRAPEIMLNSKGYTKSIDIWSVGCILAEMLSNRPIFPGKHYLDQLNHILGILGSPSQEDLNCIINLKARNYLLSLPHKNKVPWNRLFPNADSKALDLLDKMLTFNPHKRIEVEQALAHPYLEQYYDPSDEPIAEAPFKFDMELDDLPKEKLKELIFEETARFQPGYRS
Sequence of Voltage-gated inwardly rectifying potassium channel KCNH2 (Q12809 whole entry): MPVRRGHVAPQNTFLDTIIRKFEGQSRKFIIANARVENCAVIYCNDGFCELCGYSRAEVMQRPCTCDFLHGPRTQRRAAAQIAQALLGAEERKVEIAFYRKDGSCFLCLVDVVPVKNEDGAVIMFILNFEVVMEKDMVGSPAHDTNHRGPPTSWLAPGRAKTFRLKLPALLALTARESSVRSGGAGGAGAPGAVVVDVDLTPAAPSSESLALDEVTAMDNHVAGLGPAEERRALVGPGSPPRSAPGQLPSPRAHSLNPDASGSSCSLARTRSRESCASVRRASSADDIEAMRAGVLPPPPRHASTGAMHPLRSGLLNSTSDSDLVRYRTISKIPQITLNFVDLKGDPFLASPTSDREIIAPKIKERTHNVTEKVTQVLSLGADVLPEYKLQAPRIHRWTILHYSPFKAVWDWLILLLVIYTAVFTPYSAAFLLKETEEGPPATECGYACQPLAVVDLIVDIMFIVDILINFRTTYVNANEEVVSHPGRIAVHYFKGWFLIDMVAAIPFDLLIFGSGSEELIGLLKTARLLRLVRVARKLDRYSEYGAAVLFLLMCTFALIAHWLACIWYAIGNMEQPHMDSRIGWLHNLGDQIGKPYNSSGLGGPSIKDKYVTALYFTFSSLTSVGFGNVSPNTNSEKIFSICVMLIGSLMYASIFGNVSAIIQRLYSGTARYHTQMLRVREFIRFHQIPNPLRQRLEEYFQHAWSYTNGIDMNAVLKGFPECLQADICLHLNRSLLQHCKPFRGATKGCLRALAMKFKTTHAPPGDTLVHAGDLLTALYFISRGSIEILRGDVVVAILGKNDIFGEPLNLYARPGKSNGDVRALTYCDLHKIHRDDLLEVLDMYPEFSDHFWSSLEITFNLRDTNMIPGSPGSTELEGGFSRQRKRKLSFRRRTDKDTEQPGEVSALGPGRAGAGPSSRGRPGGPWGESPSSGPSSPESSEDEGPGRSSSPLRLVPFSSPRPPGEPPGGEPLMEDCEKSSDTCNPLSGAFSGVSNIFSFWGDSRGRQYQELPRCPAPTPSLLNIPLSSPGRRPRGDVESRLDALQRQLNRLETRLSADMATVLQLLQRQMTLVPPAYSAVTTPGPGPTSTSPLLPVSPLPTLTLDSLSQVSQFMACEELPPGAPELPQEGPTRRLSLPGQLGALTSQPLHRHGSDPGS

SMILES	pIC50 [1]	pIC50 [2]	pIC50 [3]	IC50 (Casein kinase 2) [µM]	pIC50 [4]	pIC50 [5]	pIC50 (Insulin receptor)	pIC50 [6]	pIC50 [7]	pIC50 [8]	pIC50 [9]	pIC50 [10]	pIC50 [11]	pIC50 [12]	pIC50 [13]	pIC50 [14]	pIC50 [15]	pKi [16]	pIC50 [17]	inhibition [18] [%]
CN(C)CCCn1nc(C2=C(c3cn(-c4ccc5ccccc5c4)c4ccccc34)C(=O)NC2=O)c2ccccc21	7.48	6.48	< 5.00	> 10	5.21	6.31	< 5.00	< 5.00	7.62	< 5.00	5.23	5.89	5.21	6.96	< 5.00	6.00				
CN1CCN(CCCn2nc(C3=C(c4cn(-c5ccc6ccccc6c5)c5ccccc45)C(=O)NC3=O)c3ccccc32)CC1	7.21																7.04	6.54	6.49	
CN(C)CCCn1nc(C2=C(c3cn(-c4cccc5ccccc45)c4ccccc34)C(=O)NC2=O)c2ccccc21	7.06	5.38	< 5.00	> 10	< 5.00	5.66	< 5.00	< 5.00	6.22	< 5.00	< 5.00	5.72	< 5.00	5.47	< 5.00	5.16			5.92	
CN(C)CCCn1nc(C2=C(c3cn(-c4cccnc4)c4ccccc34)C(=O)NC2=O)c2ccccc21	7.72	6.48	< 5.00	> 10	5.36	6.60	< 5.00	< 5.00	7.09	< 5.00	5.28	6.51	5.42	6.68	< 5.00	5.43			6.92	
CN(C)CCCn1nc(C2=C(c3cn(-c4cncc5ccccc45)c4ccccc34)C(=O)NC2=O)c2ccccc21	7.04								7.07					6.60						
CN[C@@H]1C[C@H]2O[C@@](C)([C@@H]1OC)n1c3ccccc3c3c4c(c5c6ccccc6n2c5c31)C(=O)NC4 [STAUROSPORINE]				> 10				5.85			8.70	8.10	8.22		8.40	7.85				
CN(C)CCCn1nc(C2=C(c3cn(-c4csc5ccccc45)c4ccccc34)C(=O)NC2=O)c2ccccc21	7.07	5.51	< 5.00	> 10	< 5.00	5.82	< 5.00	< 5.00	6.20	< 5.00	< 5.00	< 5.00	5.25		< 5.00	< 5.00				
O=C1NC(=O)C(c2nn(CCCN3CCCC3)c3ccccc23)=C1c1cn(-c2ccc3ccccc3c2)c2ccccc12	6.92								6.77									7.96		
CN(C)CCCn1nc(C2=C(c3cn(-c4ccccc4)c4ccccc34)C(=O)NC2=O)c2ccccc21	7.34													6.43			7.89		6.82	
O=C1NC(=O)C(c2nn(CCCN3CCOCC3)c3ccccc23)=C1c1cn(-c2ccc3ccccc3c2)c2ccccc12	6.72								7.14									6.07		
O=C1NC(=O)C(c2cn(-c3cccnc3)c3ccccc23)=C1c1[nH]nc2ccccc12	6.34																6.66		6.00	
CN(C)CCCn1nc(C2=C(c3cn(-c4cnc5ccccc5c4)c4ccccc34)C(=O)NC2=O)c2ccccc21	8.15	6.85	< 5.00	> 10	5.24	7.51	< 5.00	< 5.00	7.70	< 5.00	5.23	5.80	< 5.00		< 5.00	< 5.00				
CN(C)CCCn1nc(C2=C(c3cn(-c4cccs4)c4ccccc34)C(=O)NC2=O)c2ccccc21	7.82	6.85	< 5.00	> 10		7.07	< 5.00	< 5.00	7.12	< 5.00	5.66		5.15	6.55	5.21	5.30	8.00		6.66	57
